Measurements published in US4291175A, “1-Hydroxymethyl-11-deoxy-15-hydroxy-prosten-1-ol-derivatives” (American Cyanamid Company, priority 1980, dated 1981).

Assays:
Format in all cases: in vivo
Settings in all cases: Konzett data
5-HT = test: Konzett test, 5-HT (bronchodilator activity)
Hist = test: Konzett test, Hist (bronchodilator activity)
Ach = test: Konzett test, Ach (bronchodilator activity)

In the case of CCCCCC(C)(O)/C=C/C1C(O)CC(=O)C1C/C=C\CCCCO (racemic) [dl-1,11,15-trihydroxymethyl-9-oxo-15-methyl-5-cis-13-trans prostadiene], the “5-HT (ED50 g/kg)” value (5-HT) was 0.0083 g/kg, the “Hist (ED50 g/kg)” value (Hist) was 0.00075 g/kg and the “Ach (ED50 g/kg)” value (Ach) was 0.0043 g/kg.
